Results on nine compounds are retold here after patent US9126982B2, “Heterocyclic compounds, medicaments containing them, use and processes for the preparation thereof” (Boehringer Ingelheim International GmbH, priority 2013, dated 2015).

Series [1] can be described thus: Permeability and efflux in CALU-3 cells. In kind it is in vitro ADME. The note with it: human, Papp basal-to-apical, CALU-3 monolayers, pH 7.4, 37° C., 10 μM compound, read-out: P BA. Here is the method:
Permeability and Efflux in CALU-3 Cells:
Permeability measurements across polarized, confluent CALU-3 cell monolayers grown on permeable filter supports are used to provide information on the potential of a compound to pass the lung epithelium.
CALU-3 cells (1-2×10^5 cells/1 cm^2 area) are seeded on filter inserts (Costar transwell polycarbonate filters, 0.4 μm pore size) and cultured (DMEM) for 10-12 days until tight monolayers are formed. Compounds of interest are dissolved in appropriate solvent (DMSO, 10 mM stock solution). Stock solutions are diluted with HTP-4 buffer (128.13 mM NaCl, 5.36 mM KCl, 1 mM MgSO4, 1.8 mM CaCl2, 4.17 mM NaHCO3, 1.19 mM Na2HPO4×7H2O, 0.41 mM NaH2PO4×H2O, 15 mM HEPES, 20 mM glucose, 0.25% BSA, pH 7.4) to prepare the transport solutions (10 μM compound, final DMSO<=0.5%). The transport solution (TL) is applied to the apical or basolateral donor side for measuring A-B or B-A permeability (3 filter replicates), respectively. The receiver side contains the same buffer as the donor side. After 30 min of accommodation, samples are collected at the start t0=0 min and at the end of the experiment tn=90 min from the donor and at 0, 30, 60, and 90 min also from the receiver chamber. Volume removed is replenished by HTP-4 buffer. The compound concentration in the samples is measured by HPLC-MS/MS or scintillation counting. The permeability coefficient (Papp) and efflux ratio are calculated according to: Papp [cm/s]=(concentration receiver [nM]*volume receiver [mL]/time interval [sec])*(1/filter area)*(1/donor concentration [nM]) Efflux ratio or Uptake ratio=Papp,BA/Papp,AB

In another series the test system is Mouse kidney M-1 cells. Nature of the series: Ussing Chamber assay, short circuit current in M-1 cells. It counts as cell-based. The settings on record: inhibition of amiloride sensitive short circuit current (I_sc), compounds applied to the apical solution, 37° C. How it is done: Ussing Chamber: Mouse kidney M-1 cells were cultivated in DMEM containing 5% FCS and 5 μM dexamethasone for 10 to 12 days on polyester transwell filters. Filters were inserted into a teflon-coated well-plate which fit into the ussing chamber system. Prior to measurement the medium of M-1 cells was replaced with Caco-2 transport buffer (Invitrogen, Germany). During measurements, the Ussing chamber temperature was kept at 37° C. Short circuit currents (I_sc) were measured in the voltage-clamp mode using an amplifier with the software package Lab View for data acquisition and analysis. The transepithelial electrical resistance (TEER) was determined by the application of voltage steps of ±5 mV every 5 sec. Compounds were administered at a final concentration of 3 μM or at increasing concentrations (e.g. 1-3-10 μM) to the apical solution. At the end of each experiment the amiloride sensitive I_SC was measured by adding 3 μM amiloride to the apical compartment. Results are expressed as inhibition in percent of the amiloride effect or as IC50.
With the example compounds given above, the following IC50 values given in Table 1 were determined in the Ussing Chamber assay: […]

Like-named read-outs stand apart in the source and are kept apart here.

As for `N/C(=N\C(=O)c1nc(Cl)c(N)nc1N)N[C@H]1CC[C@H](N)CC1` [Example 6.2], the Papp B→A at 90 min, 10 μM in series [1] (exponent E−07) is less than 0.272 ×10⁻⁶ cm/s. The compound also had a half-inhibitory concentration (IC50) with Mouse kidney M-1 cells of 6 nM. The matching figures for `C[N+]1(C)CCN(CC(=O)N[C@H]2CC[C@H](N/C(N)=N/C(=O)c3nc(Cl)c(N)nc3N)CC2)CC1.[I-]` [Example 3.1]: 0.229 ×10⁻⁶ cm/s and 25 nM. On to `CC(C)(C)OC(=O)c1ccc(C(=O)N[C@H]2CC[C@H](N/C(N)=N/C(=O)c3nc(Cl)c(N)nc3N)CC2)cc1` [Example 5.1], for which, in the series on Mouse kidney M-1 cells, half-maximal inhibition (IC50) was put at 10 nM. For `C[C@@H](N)C(=O)N[C@H]1CC[C@H](N/C(N)=N/C(=O)c2nc(Cl)c(N)nc2N)CC1.O=C(O)C(F)(F)F` [Example 6.1], the Papp B→A at 90 min, 10 μM in series [1] (exponent E−07) was 0.225 ×10⁻⁶ cm/s. The compound also had a 50% inhibitory concentration (IC50) in the series on Mouse kidney M-1 cells of 34 nM. Take `COC(=O)CN(C)[C@H]1CC[C@H](N/C(N)=N/C(=O)c2nc(Cl)c(N)nc2N)CC1` [Example 1.1]: the IC50 with Mouse kidney M-1 cells stood at 7 nM. Still for that read-out and setting: to `N=C(N)N[C@H]1CC[C@H](N/C(N)=N/C(=O)c2nc(Cl)c(N)nc2N)CC1` [Example 7] belongs 10 nM; to `N/C(=N\C(=O)c1nc(Cl)c(N)nc1N)N[C@H]1CC[C@H](NC(=O)CN(CC(=O)O)CC(=O)O)CC1` [Example 2.1], 304 nM. On to `CN(C)CCCN[C@H]1CC[C@H](N/C(N)=N/C(=O)c2nc(Cl)c(N)nc2N)CC1` [Example 4.1], for which the Papp B→A at 90 min, 10 μM in series [1] (exponent E−06 printed in the row below (r3)) was less than 2.72 ×10⁻⁶ cm/s. Moreover, the half-maximal inhibitory concentration (IC50) with Mouse kidney M-1 cells was determined as 31 nM. With `CN1CCN(S(=O)(=O)N[C@H]2CC[C@H](N/C(N)=N/C(=O)c3nc(Cl)c(N)nc3N)CC2)CC1.O=C(O)C(F)(F)F` [Example 8], the Papp B→A at 90 min, 10 μM in series [1] (exponent E−07) came to 0.354 ×10⁻⁶ cm/s. The compound also yielded an IC50 in the series on Mouse kidney M-1 cells of 25 nM.

A word on the IC50: it is the concentration needed to halve the response being measured. High values mean lower potency, low ones higher potency.
